{"source": "patent US20170128475A1", "about": "“COMPOSITIONS AND METHODS FOR PREVENTING AND TREATING ORGAN INJURY AND/OR DYSFUNCTION” (THE GENERAL HOSPITAL CORPORATION, priority 2010, published 2017)", "key": {"Cx32+/+ and Cx32−/− mice": {"system": "Cx32+/+ and Cx32−/− mice", "test": "TAA-induced mortality in Cx32+/+ and Cx32−/− mice", "type": "in vivo", "details": "single lethal dose 500 mg/kg TAA, 30 days", "description": "FIG. 1C is a series of micrographs showing less liver hemorrhaging, necrosis and acute inflammation in Cx32−/− mice compared to Cx32+/+ mice 24 hours after TAA treatment (H&E staining; original magnification 10×; scale bar=400 μm). FIG. 1D presents bar graphs depicting increase in total liver TNF-α, pro-IL-1α, IL-6, and CCL5 transcripts, as measured by Q-PCR, in Cx32+/+ mice 12 hours after TAA, compared to Cx32−/− mice. FIG. 1E is a bar graph of liver tissue myeloperoxidase activity (MPO) in Cx32+/+ and Cx32−/− mice 24 hours after treatment with TAA. FIG. 1F is a Kaplan-Meier survival curve for Cx32+/+ and Cx32−/− mice over 30 days after a single lethal dose of 500 mg/kg TAA (Cx32+/+ and Cx32−/−: n=12).\nC57BL/6 mice were purchased from Jackson Laboratory. Cx32−/− mice were a generous gift from K. Willecke (University of Bonn) and D. Paul (Harvard University). All animal protocols were approved by Massachusetts General Hospital Subcommittee on Research Animal Care. For survival experiments, animals were euthanized when they became moribund according to the criteria of lack of response to stimuli or lack of righting reflex.\nTAA (Sigma Aldrich, St. Louis, Mo.) solution was made fresh for each experiment in 0.9% saline at 20 mg/ml. TAA was dosed at 200, 500 or 1000 mg/kg, depending on the experiment, and injected intraperitoneally. Control mice received the appropriate volume of 0.9% saline. […]"}, "Cx32 gap junctions [1]": {"system": "Cx32 gap junctions", "test": "Dye-coupling parachute assay, HeLa Cx32 cells", "type": "cell-based", "details": "2APB 100 μM, 4 hours, normalized to no 2APB", "description": "(§1) FIG. 2A-FIG. 2F presents data on small molecule inhibitors of Cx32 that selectively block hepatic gap junction communication and limit drug-induced hepatotoxicity. FIG. 2A and FIG. 2B depict a dye-coupling parachute assay was used to determine the specificity of 2APB for Cx32 gap junctions compared to Cx43 gap junctions. HeLa Cx32 or Cx43 cells were loaded with gap junction permeable calcein-AM (10 μM) and impermeable CM-DiI (10 μM), and seeded onto unlabeled recipient HeLa Cx32 or Cx43 cells, respectively, in the presence or absence of 2APB (100 μM). After 4 hours, the co-culture was analyzed by fluorescence microscopy (n>5), and gap junction communication was assessed by calculating the average number of calcein positive cells per CM-Dil positive cells, normalized to control conditions without 2APB treatment. FIG. 2C depicts a tissue version of the scrape and load test, developed to evaluate functional gap junction intercellular communication in liver tissue. Cx32+/+ and Cx32−/− mice were treated with saline, 2APB (20 mg/kg), or 2APB plus TAA (200 mg/kg) for 3 hours. […] Slices were washed, fixed, cryosectioned (7 μm), and analyzed by fluorescence microscopy (n>5) and custom automated image analysis software to produce iso-intensity contour maps outlining spread of Lucifer yellow and dextran-Texas red. […]"}, "Cx43 gap junctions": {"system": "Cx43 gap junctions", "test": "Dye-coupling parachute assay, HeLa Cx43 cells", "type": "cell-based", "details": "2APB 100 μM, 4 hours, normalized to no 2APB", "description": "as §1"}, "[2]": {"system": "hepatic gap junction communication", "test": "Tissue scrape and load assay on explanted liver slices", "type": "in vivo, mice", "details": "2APB 20 mg/kg i.p.; livers excised after 3 hours", "description": "as §1, with “treatment.” for “treatment. FIG. 2C depicts a tissue version of the scrape and load test, developed to evaluate functional gap junction intercellular communication in liver tissue. Cx32+/+ and Cx32−/− mice were treated with saline, 2APB (20 mg/kg), or 2APB plus TAA (200 mg/kg) for 3 hours.”\nFluorescence images were captured on a Zeiss 200 Axiovert microscope at a fixed exposure and gain. Images for the tissue scrape load assay were quantified using custom image analysis routines written in MATLAB13. […] Regional outlines were plotted as contour maps by displaying iso-intensity lines at the determined threshold level."}, "wild type mice [3]": {"system": "wild type mice", "test": "TAA-induced hepatotoxicity in wild type mice treated with 2APB", "type": "in vivo", "details": "for total hepatic ROS levels: 2APB (20 mg/kg) coadministered with TAA (200 mg/kg), 4 hours, dihydroethidium staining", "description": "FIG. 2A-FIG. 2F presents data on small molecule inhibitors of Cx32 that selectively block hepatic gap junction communication and limit drug-induced hepatotoxicity. FIG. 2A and FIG. 2B depict a dye-coupling parachute assay was used to determine the specificity of 2APB for Cx32 gap junctions compared to Cx43 gap junctions. HeLa Cx32 or Cx43 cells were loaded with gap junction permeable calcein-AM (10 μM) and impermeable CM-DiI (10 μM), and seeded onto unlabeled recipient HeLa Cx32 or Cx43 cells, respectively, in the presence or absence of 2APB (100 μM). After 4 hours, the co-culture was analyzed by fluorescence microscopy (n>5), and gap junction communication was assessed by calculating the average number of calcein positive cells per CM-Dil positive cells, normalized to control conditions without 2APB treatment. FIG. 2C depicts a tissue version of the scrape and load test, developed to evaluate functional gap junction intercellular communication in liver tissue. Cx32+/+ and Cx32−/− mice were treated with saline, 2APB (20 mg/kg), or 2APB plus TAA (200 mg/kg) for 3 hours. Livers were excised, cut into 2-3 mm slices, and a small area of each slice was mechanically damaged with the insertion of a 27 gauge needle coated with 0.5% Lucifer yellow (gap junction permeable) and 0.5% Texas red labeled dextran (gap junction impermeable). Slices were washed, fixed, cryosectioned (7 μm), and analyzed by fluorescence microscopy (n>5) and custom automated image analysis software to produce iso-intensity contour maps outlining spread of Lucifer yellow and dextran-Texas red. […] FIG. 2D: Serum alanine aminotransferase (ALT) levels; FIG. 2E: liver tissue MPO activity; and FIG. 2F: H&E liver sections (original magnification 10×; scale bar=400 μm) from wildtype mice pretreated with 2APB (20 mg/kg) or vehicle for 60 minutes, and then challenged with TAA (200 mg/kg) for 24 hours.\n(§2) Serum ALT levels (FIG. 3A); liver tissue MPO activity (FIG. 3B); and H&E liver sections (FIG. 3C) (original magnification 10×; scale bar=400 μm) from wildtype mice after treatment with 2APB alone (20 mg/kg), TAA (200 mg/kg) plus vehicle, TAA (200 mg/kg) plus 2APB (1 or 20 mg/kg), APAP (500 mg/kg) plus vehicle, or APAP (500 mg/kg) plus 2APB (20 mg/kg). Livers and sera were collected 24 hours after TAA challenge, or 16 hours after APAP challenge. FIG. 3D reflects Q-PCR for TNF-α, […], IL-6, and CCL5 from whole livers of mice treated with TAA and 2APB as described above. FIG. 3E is a Kaplan-Meier survival curve for wildtype mice over 30 days after a single lethal dose of TAA (500 mg/kg) plus vehicle, or TAA (500 mg/kg) plus 2APB (20 mg/kg) (n=10). Serum ALT levels (FIG. 3F) and H&E liver sections (FIG. 3G) (original magnification 10×; scale bar=400 μm) from wildtype mice after TAA (200 mg/kg) or APAP (500 mg/kg), with or without a rescue injection of 2APB (20 mg/kg) at 1.5, 3 or 6 hours after hepatotoxin challenge. Livers and sera were collected 24 hours after TAA challenge, or 16 hours after APAP challenge.\nLiver cryosections from Cx32+/+ mice treated with vehicle, TAA (200 mg/kg) plus vehicle, or TAA (200 mg/kg) plus 2APB (20 mg/kg) for 4 hours were stained with dihydroethidium, a cell permeable free radical probe that binds nucleic DNA and becomes fluorescent when […], and analyzed by fluorescence microscopy for ROS activity (n>5).\nTAA (Sigma Aldrich, St. Louis, Mo.) solution was made fresh for each experiment in 0.9% saline at 20 mg/ml. TAA was dosed at 200, 500 or 1000 mg/kg, depending on the experiment, and injected intraperitoneally. Control mice received the appropriate volume of 0.9% saline. Animals were euthanized by ketamine/xylazine injection at 24 hr for collection of serum and liver tissue for qPCR, GSH/GST assay, MPO activity assay, and histology. For survival experiments, animals were observed every 24 hr for 30 days.\n2APB (Sigma Aldrich) was made fresh for each experiment in DMSO as a vehicle at 200 mg/ml. […]"}, "wild type mice [4]": {"system": "wild type mice", "test": "APAP-induced hepatotoxicity in wild type mice treated with 2APB", "type": "in vivo", "description": "as §2\nAPAP (Sigma Aldrich) solution was made fresh for each experiment in 0.9% saline at 20 mg/ml and heated until dissolved. APAP was dosed at 500 or 750 mg/kg, and injected intraperitoneally after 15 hr of starvation. Animals were euthanized by ketamine/xylazine injection at 16 hr for collection of serum, and liver tissue for MPO activity assay and histology.\n2APB (Sigma Aldrich) was made fresh for each experiment in DMSO as a vehicle at 200 mg/ml. 2APB was dosed at 1 or 20 mg/kg, and was administered before (90 min), with, or after (1.5, 3 or 6 hr) the appropriate dose of TAA or APAP. Vehicle control mice received the appropriate volume of DMSO. Fresh anhydrous DMSO (Sigma Aldrich) was used for each experiment. DMSO was dosed at 0.1 or 1 ml/kg, and coadministered concurrently with 200 mg/kg TAA or saline.\nMouse liver tissues were homogenized in MPO buffer (0.5% hexadecyl trimethyl ammonium bromide, 10 mM EDTA, 50 mM Na2HPO4, pH 5.4) using a Polytron homogenizer. Liver homogenates were then subject to three freeze-thaw cycles and cleared by centrifugation. MPO reaction was carried out using the Invitrogen EnzChek Myeloperoxidase Activity Assay Kit (Invitrogen, Carlsbad, Calif.), according to the manufacturer's protocol."}, "Cx32 gap junctions [5]": {"target": "Cx32 gap junctions (Homo sapiens, UniProt P08034)", "sequence (P08034 whole entry)": "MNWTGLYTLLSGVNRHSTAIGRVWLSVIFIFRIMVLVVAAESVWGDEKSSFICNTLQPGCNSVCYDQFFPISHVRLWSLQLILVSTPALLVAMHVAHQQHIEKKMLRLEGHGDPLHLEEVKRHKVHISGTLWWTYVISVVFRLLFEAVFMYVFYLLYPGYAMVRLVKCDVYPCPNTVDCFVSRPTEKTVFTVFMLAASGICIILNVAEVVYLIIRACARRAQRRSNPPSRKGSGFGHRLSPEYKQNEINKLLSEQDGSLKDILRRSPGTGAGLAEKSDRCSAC", "details": "shown previously, Tao & Harris, 71 Mol. Pharmacol. 57 (2007); cited from earlier work"}, "[6]": {"details": "2APB coadministered with TAA (200 mg/kg), 24 hours"}, "[7]": {"details": "rescue injection of 2APB (20 mg/kg) 6 hours after TAA (200 mg/kg)"}, "[8]": {"details": "single dose 2APB (20 mg/kg) 60 minutes prior to TAA (200 mg/kg), 24 hours, compared to vehicle"}, "[9]": {"details": "2APB (20 mg/kg) coadministered with APAP (500 mg/kg), 16 hours"}, "[10]": {"details": "rescue injection of 2APB (20 mg/kg) 6 hours after APAP (500 mg/kg)"}}}
{"molecule": "CC(=N)S", "note": "[TAA, thioacetamide]", "values": [{"measurement": "mortality", "setting": "Cx32+/+ and Cx32−/− mice; Cx32+/+ mice", "value": 100, "unit": "%"}, {"measurement": "survival", "setting": "Cx32+/+ and Cx32−/− mice; Cx32−/− mice", "value": 100, "unit": "%"}]}
{"molecule": "NCCOB(c1ccccc1)c1ccccc1", "note": "[2APB, 2-aminoethyoxydiphenyl-borate]", "values": [{"measurement": "spread of calcein via Cx32 gap junctions", "setting": "Cx32 gap junctions [1]", "value": "blocked"}, {"measurement": "effect on Cx43 gap junctions (spread of calcein)", "setting": "Cx43 gap junctions", "value": "minimal effect"}, {"measurement": "hepatic gap junction communication in vivo (spread of Lucifer yellow)", "setting": "[2]", "value": "effectively blocks"}, {"measurement": "total hepatic ROS levels", "setting": "wild type mice [3]", "value": "dramatically reduced"}, {"measurement": "total hepatic ROS levels", "setting": "wild type mice [3]; listed as 2-APB", "value": "abrogated"}, {"measurement": "serum ALT", "setting": "wild type mice [3]; 2APB (1 or 20 mg/kg) coadministered with TAA (200 mg/kg), 24 hours, compared with TAA alone", "value": "dramatically reduced"}, {"measurement": "histological evidence of hepatic necrosis and hemorrhaging", "setting": "wild type mice [3]; [6]", "value": "dramatically reduced"}, {"measurement": "neutrophil infiltration (liver tissue MPO activity)", "setting": "wild type mice [3]; [6]", "value": "dramatically reduced"}, {"measurement": "liver inflammation", "setting": "wild type mice [3]; 2APB coadministered with TAA (200 mg/kg), Q-PCR of whole livers", "value": "dramatically reduced"}, {"measurement": "hepatotoxicity", "setting": "wild type mice [3]; rescue injection of 2APB (20 mg/kg) 1.5 hours after TAA (200 mg/kg)", "value": "nearly complete absence"}, {"measurement": "hepatocellular damage and necrosis", "setting": "wild type mice [3]; [7]", "value": "limited"}, {"measurement": "serum ALT levels", "setting": "wild type mice [3]; [7]", "value": "reduced"}, {"measurement": "histological evidence of parenchymal damage", "setting": "wild type mice [3]; [8]", "value": "dramatically reduced"}, {"measurement": "neutrophil infiltration (liver tissue MPO activity)", "setting": "wild type mice [3]; [8]", "value": "limited"}, {"measurement": "serum ALT", "setting": "wild type mice [3]; [8]", "value": "significantly reduced"}, {"measurement": "survival", "setting": "wild type mice [3]; single lethal dose TAA (500 mg/kg) plus 2APB (20 mg/kg), 30 days", "value": 100, "unit": "%"}, {"measurement": "histological evidence of hepatic necrosis and hemorrhaging", "setting": "wild type mice [4]; [9]", "value": "dramatically reduced"}, {"measurement": "neutrophil infiltration (liver tissue MPO activity)", "setting": "wild type mice [4]; [9]", "value": "dramatically reduced"}, {"measurement": "serum ALT", "setting": "wild type mice [4]; 2APB (20 mg/kg) coadministered with APAP (500 mg/kg), 16 hours, compared with APAP alone", "value": "dramatically reduced"}, {"measurement": "liver inflammation", "setting": "wild type mice [4]; 2APB coadministered with APAP", "value": "dramatically reduced"}, {"measurement": "total hepatic ROS levels", "setting": "wild type mice [4]; 2APB coadministered with APAP", "value": "dramatically reduced"}, {"measurement": "hepatotoxicity", "setting": "wild type mice [4]; rescue injection of 2APB (20 mg/kg) 1.5 hours after APAP (500 mg/kg)", "value": "nearly complete absence"}, {"measurement": "hepatocellular damage and necrosis", "setting": "wild type mice [4]; [10]", "value": "limited"}, {"measurement": "serum ALT levels", "setting": "wild type mice [4]; [10]", "value": "reduced"}, {"measurement": "inhibition of Cx32 gap junctions in vitro", "setting": "Cx32 gap junctions [5]", "value": "transiently inhibit"}]}
